# Legend:
# [1] = system: Monoclonal Antibody F12 (FucosylGM1); assay: Dot-blot immune stain of carbohydrates with monoclonal antibody F12; type: binding; details: 0.5 μg antigen spotted
# [2] = system: Monoclonal Antibody BR 96 (Le^y related); assay: Dot-blot immune stain of carbohydrates with monoclonal antibody BR 96; type: binding; details: for Binding with BR 96 (Le^y related) by dot-blot: 0.5 μg antigen spotted, BR 96 diluted 1:500
# Protocol: 0.5 μg KH-1 ceramide and other Ley antigen and unrelated antigens were spotted on nitrocellulose strips. Dot blot Immune staining was performed monoclonal antibody BR 96 after blocked with 6% bovine serum albumin in PBS for 1 h and incubated with antibody BR 96 (diluted 1:500 in PBS) overnight at room temperature. The strips were washed with PBS containing 0.05% Tween 20 and incubated with anti-mouse IgG antibody conjugated with horseradish peroxidase at 1:200 dilution for 3 h at room temperature. Then the strips were washed with PBS-0.05% Tween 20 and developed with 4-chloro-1-naphtol-H2O2.
Binding with F12 (FucosylGM1) by dot-blot [1],Binding with BR 96 (Le^y related) by dot-blot [2],Substance,Reaction with BR 96 antibody by dot-blot ([2]; compared with other Le^y related antigens)
negative,very strong,KH-1 antigen [KH-1 ceramide],reacted very strongly
negative,negative,Globo H ceramide [reference compound],

# From patent US20020006900A1, “Colon cancer KH-1 and N3 antigens” (priority 1997, published 2002)
